In patent US11213577B2, “Treatment of cancer using recall antigens delivered by attenuated bacteria” (ALBERT EINSTEIN COLLEGE OF MEDICINE, INC., priority 2015, dated 2022):

What was measured:
[1] = system: CD4 and CD8 T cells; test: CD4 and CD8 T cell responses in spleens of Panc-02 mice by flow cytometry; type: in vivo; details: spleens of 3 mice pooled
[2] = system: TAM (CD11b+F4/80+); test: Analysis of TAM (CD11b+F4/80+) in metastases of Panc-02 mice by flow cytometry; type: in vivo
Experimental: (§1) FIG. 7A-7B. […] C57B16 mice were challenged with Panc-02 tumor cells and treated with Listeria-TT+GEM as described in FIG. 7A. Two days after the last treatment the percentage of MDSC (CD11b+Gr1+) was determined in blood by flow cytometry. N=5 mice per group. Representative of two experiments. […] C57B16 mice were challenged with Panc-02 tumor cells and treated with Listeria-TT+GEM as described in FIG. 7A. Two days after the last treatment the percentage of TAM (CD11b+F4/80+) was determined in the primary tumors by flow cytometry. N=5 mice per group. Representative of two experiments. The error bars represent SEM.
(§2) Panc-02 mice with advanced pancreatic cancer were treated with one high and multiple low doses of Listeria-TT (LM-TT) and GEM as described in FIG. 7A. MDSC and TAM were analyzed in the metastases by flow cytometry. Metastases of 3 mice were pooled. This experiment was performed once.

[3] = system: CD4 and CD8 T cells; test: CD4 and CD8 T cell responses in spleen of KPC mice by flow cytometry; type: in vivo
[4] = system: MDSC (CD11b+Gr1+); test: Analysis of MDSC (CD11b+Gr1+) in blood of Panc-02 mice by flow cytometry; type: in vivo
Experimental: as §1, §2

[5] = system: CD8 T cells; test: CD8 T cell responses to immunodominant TT epitope after immunization; type: in vivo, BALB/cByJ mice; details: three immunizations with TT856-1313 protein and CpG, blood, restimulated with […]
[6] = TAM in metastases, 3 mice pooled

Molecule: Nc1ccn([C@@H]2O[C@H](CO)[C@@H](O)C2(F)F)c(=O)n1 [GEM, gemcitabine]
- CD3CD4CD69 [1]: 14.2 Percentage
- CD3CD4Granzyme B [1]: 4.8 Percentage
- CD3CD4IFNγ [1]: 2.7 Percentage
- CD3CD4Perforin [1]: 14.9 Percentage
- CD3CD8CD69 [1]: 15.5 Percentage
- CD3CD8Granzyme B [1]: 1.1 Percentage
- CD3CD8IFNγ [1]: 0.4 Percentage
- CD3CD8Perforin [1]: 4.8 Percentage
- CD80, Percentage of TAM (CD11b+F4/80+) in Metastases [2, 6]: 4.28 Percentage
- IL-6, Percentage of TAM (CD11b+F4/80+) in Metastases [2, 6]: 1.25 Percentage
- IL-10, Percentage of TAM (CD11b+F4/80+) in Metastases [2, 6]: 1.47 Percentage
- MARCO, Percentage of TAM (CD11b+F4/80+) in Metastases [2, 6]: 1.94 Percentage
- TNFα, Percentage of TAM (CD11b+F4/80+) in Metastases [2, 6]: 8.85 Percentage
- TAM population in metastases ([2]; two days after last treatment): reduces the TAM population
- CD3CD4CD69 [3]: 10.01 Percentage
- CD3CD4Granzyme B [3]: 3.5 Percentage
- CD3CD4IFNγ [3]: 0.0 Percentage
- CD3CD4Perforin [3]: 7.90 Percentage
- CD3CD8CD69 [3]: 17.5 Percentage
- CD3CD8Granzyme B [3]: 9.71 Percentage
- CD3CD8IFNγ [3]: 1.7 Percentage
- CD3CD8Perforin [3]: 15.60 Percentage
- CD80, Percentage of MDSC (CD11b+Gr1+) in Blood ([4]; MDSC in blood): 1.78 Percentage
- IL-6, Percentage of MDSC (CD11b+Gr1+) in Blood ([4]; MDSC in blood): 3.59 Percentage
- IL-10, Percentage of MDSC (CD11b+Gr1+) in Blood ([4]; MDSC in blood): 2.76 Percentage
- MARCO, Percentage of MDSC (CD11b+Gr1+) in Blood ([4]; MDSC in blood): 3.84 Percentage
- TNFα, Percentage of MDSC (CD11b+Gr1+) in Blood ([4]; MDSC in blood): 8.49 Percentage
- MDSC population in blood ([4]; two days after last treatment): reduces the MDSC population

B1: TT856-1313 protein: purified non-toxic C-terminal fragment of tetanus toxoid, amino acid positions 856-1313 (protein, UniProt P04958 856-1313, looked up, fragment)
chain: STPIPFSYSKNLDCWVDNEEDIDVILKKSTILNLDINNDIISDISGFNSSVITYPDAQLVPGINGKAIHLVNNESSEVIVHKAMDIEYNDMFNNFTVSFWLRVPKVSASHLEQYGTNEYSIISSMKKHSLSIGSGWSVSLKGNNLIWTLKDSAGEVRQITFRDLPDKFNAYLANKWVFITITNDRLSSANLYINGVLMGSAEITGLGAIREDNNITLKLDRCNNNNQYVSIDKFRIFCKALNPKEIEKLYTSYLSITFLRDFWGNPLRYDTEYYLIPVASSSKDVQLKNITDYMYLTNAPSYTNGKLNIYYRRLYNGLKFIIKRYTPNNEIDSFVKSGDFIKLYVSYNNNEHIVGYPKDGNAFNNLDRILRVGYNAPGIPLYKKMEAVKLRDLKTYSVQLKLYDDKNASLGLVGTHNGQIGNDPNRDILIASNWYFNHLKDKILGCDWYFVPTDEGWT
- CD8 T cell responses to immunodominant epitope [5]: CD8 T cells were activated
